Test results taken from PubChem BioAssay (NCI).
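GI50: concentration for 50% inhibition of growth. TGI is the concentration that stops growth completely.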

Tests used:
Test in all cases: DTP human tumour cell line panel, 384-well format
[1] = system: SNB-75 CNS
[2] = system: SK-OV-3 ovarian
[3] = system: NCI-H23 lung
[4] = system: SK-MEL-2 melanoma
[5] = system: HL-60(TB) leukemia
[6] = system: KM12 colon
[7] = system: BT-549 breast
[8] = system: CCRF-CEM leukemia
[9] = system: EKVX NSCLC
[10] = system: ACHN renal
[11] = system: MDA-MB-231 breast
[12] = system: HOP-62 NSCLC
[13] = system: PC-3 prostate
[14] = system: 786-0 renal
[15] = system: T-47D breast
[16] = system: U251 glioblastoma
[17] = system: MOLT-4 leukemia
[18] = system: HCT-15 colon
[19] = system: MDA-MB-435 melanoma
[20] = system: HT29 colon
[21] = system: RPMI-8226 leukemia
[22] = system: HS 578T breast
[23] = system: UACC-62 melanoma
[24] = system: MCF7 breast
[25] = system: A498 renal
[26] = system: DU-145 prostate
[27] = system: NCI-H226 lung
[28] = system: LOX IMVI melanoma
[29] = system: OVCAR-8 ovarian
[30] = system: RXF 393 renal
[31] = system: OVCAR-4 ovarian
[32] = system: OVCAR-5 ovarian
[33] = system: SK-MEL-28 melanoma
[34] = system: A549 NSCLC
[35] = system: SNB-19 CNS
[36] = system: SW-620 colon
[37] = system: MALME-3M melanoma
[38] = system: NCI-H522 lung
[39] = system: NCI-H322M lung
[40] = system: OVCAR-3 ovarian
[41] = system: UACC-257 melanoma
[42] = system: M14 melanoma
[43] = system: NCI/ADR-RES ovarian
[44] = system: HOP-92 NSCLC
[45] = system: SF-539 CNS
[46] = system: K-562 leukemia
[47] = system: IGROV1 ovarian
[48] = system: SF-268 CNS
[49] = system: TK-10 renal
[50] = system: SN12C renal
[51] = system: UO-31 renal
[52] = system: CAKI-1 renal
[53] = system: SF-295 CNS
[54] = system: HCT-116 colon
[55] = system: MDA-MB-468 breast

## C1CN1c1nc(N2CC2)nc(N2CC2)n1
[1]
  GI50: 1.67 µM
  TGI: 10.3 µM
[2]
  GI50: 2.76 µM
  TGI: 12.2 µM
[3]
  GI50: 1.22 µM
  TGI: 4.3 µM
[4]
  GI50: 8.35 µM
  TGI: 18.8 µM
[5]
  GI50: 0.144 µM
  TGI: 0.3 µM
[6]
  GI50: 2.47 µM
  TGI: 54.9 µM
[7]
  GI50: 2.16 µM
  TGI: 11.5 µM
[8]
  GI50: 0.449 µM
  TGI: 1.35 µM
[9]
  GI50: 15.5 µM
  TGI: 31 µM
[10]
  GI50: 1.55 µM
  TGI: 4.03 µM
[11]
  GI50: 11.7 µM
  TGI: 25.2 µM
[12]
  GI50: 0.589 µM
  TGI: 2.75 µM
[13]
  GI50: 10.7 µM
  TGI: 23.4 µM
[14]
  GI50: 2.59 µM
  TGI: 11.9 µM
[15]
  GI50: 5.49 µM
  TGI: 22.7 µM
[16]
  GI50: 1.42 µM
  TGI: 13.3 µM
[17]
  GI50: 0.0877 µM
  TGI: 0.21 µM
[18]
  GI50: 2.34 µM
  TGI: 14.1 µM
[19]
  GI50: 10.8 µM
  TGI: 23.1 µM
[20]
  GI50: 2.75 µM
  TGI: 15.3 µM
[21]
  GI50: 0.736 µM
  TGI: 3.11 µM
[22]
  GI50: 11.6 µM
  TGI: 24 µM
[23]
  GI50: 1.34 µM
  TGI: 11.6 µM
[24]
  GI50: 1.51 µM
  TGI: 18 µM
[25]
  GI50: 3.36 µM
  TGI: 18.6 µM
[26]
  GI50: 1.04 µM
  TGI: 5.94 µM
[27]
  GI50: 4.42 µM
  TGI: 19.9 µM
[28]
  GI50: 2.25 µM
  TGI: 14.8 µM
[29]
  GI50: 1.39 µM
  TGI: 15.9 µM
[30]
  GI50: 3.11 µM
  TGI: 13.1 µM
[31]
  GI50: 14.7 µM
  TGI: 29 µM
[32]
  GI50: 5.96 µM
  TGI: 22 µM
[33]
  GI50: 10.3 µM
  TGI: 22.1 µM
[34]
  GI50: 3.42 µM
  TGI: 19.5 µM
[35]
  GI50: 3.73 µM
  TGI: 18.1 µM
[36]
  GI50: 2.84 µM
  TGI: 20 µM
[37]
  GI50: 4.87 µM
  TGI: 18.6 µM
[38]
  GI50: 1.36 µM
  TGI: 2.87 µM
[39]
  GI50: 13.3 µM
  TGI: 27.9 µM
[40]
  GI50: 3.13 µM
  TGI: 14.5 µM
[41]
  GI50: 12.5 µM
  TGI: 25.2 µM
[42]
  GI50: 1.74 µM
  TGI: 10.5 µM
[43]
  GI50: 3.02 µM
  TGI: 15.1 µM
[44]
  GI50: 6.61 µM
  TGI: 58.6 µM
[45]
  GI50: 1.46 µM
  TGI: 4.3 µM
[46]
  GI50: 3.96 µM
  TGI: 17.4 µM
[47]
  GI50: 10.8 µM
  TGI: 22.9 µM
[48]
  GI50: 0.68 µM
  TGI: 10.2 µM
[49]
  GI50: 14.3 µM
  TGI: 35 µM
[50]
  GI50: 1.21 µM
  TGI: 10.3 µM
[51]
  GI50: 5.17 µM
  TGI: 17.9 µM
[52]
  GI50: 1.46 µM
  TGI: 14.2 µM
[53]
  GI50: 1.08 µM
  TGI: 2.84 µM
[54]
  GI50: 1.61 µM
  TGI: 16.6 µM
[55]
  GI50: 0.139 µM
  TGI: 0.586 µM
